Measured values as given in patent publication EP4613730A1, “LIPIDIC ALKYNYLCARBINOLS WITH ANTI-BACTERIAL AND ANTI-TUBERCULOSIS ACTIVITY” (priority 2024, dated 2025).
≈ marks a conversion by molar mass, not a printed value. Like-named read-outs stand apart in the source and are kept apart here.

Tests used:
Assay type in all cases: cell-based
[1] = tested on: Mycobacterium tuberculosis strain H37Rv; test: Mycobacterial growth inhibition assay (colorimetric MTT micro assay, MIC)
[2] = tested on: M. abscessus; test: Antibacterial activity MIC, M. abscessus; conditions: Mycobacteroides abscessus
[3] = Cytotoxicity evaluation on Vero cell line (MTT); conditions: Vero cells, read-out: Anti-VERO CC50
Method: (§1) The biological activity of the compounds of the present invention were evaluated. The activity against mycobacteria (Mtb) was assessed by minimum inhibitory concentration values (MIC, µM) determination. The selectivity index (SI) is defined as: SI = (CC50)/(MIC) [formula] wherein CC50 refers to the half maximal cytotoxic concentration of compounds towards particular eukaryotic cells, either for HCT116 cells and/or VERO cells; MIC refers to the minimum inhibitory concentration of the compounds towards mycobacteria.
Cytotoxicity evaluation of the tested molecules by MTT assay was performed on the Vero cell line. Briefly, cells (5.10^4 cells/mL) in 100 µL of complete medium [MEM supplemented with 10% fetal calf serum (FCS), 2 mM L-glutamine and antibiotics (100U/mL penicillin and 100 µg/mL streptomycin)] were seeded into each well of 96-well plates and incubated at 37 °C in a humidified 5% CO2 with 95% air atmosphere. After a 24 h incubation, 100 µL of medium with various product concentrations and appropriate controls were added and the plates were incubated for 72 h at 37 °C. Each plate-well was then microscope-examined for detecting possible precipitate formation before the medium was aspirated from the wells. 100 µL of MTT solution (0.5 mg/mL in complete MEM) were then added to each well. Cells were incubated for 1 h at 37 °C and the MTT solution was then removed, and DMSO (100 µL/well) was added to dissolve the resulting formazan crystals. Plates were shaken vigorously (300 rpm) for 5 min. The absorbance was measured at 570 nm with a microplate spectrophotometer (BIOTEK Eon). DMSO was used as blank and SDS as positive control. CC50 were calculated by non-linear regression analysis processed on dose-response curves, using TableCurve 2D V5 software.

[4] = Cytotoxicity evaluation on HCT-116 cell line (SRB); conditions: human, HCT-116 cells, 72 hours treatment, read-out: Anti-HCT116 CC50
Method: as §1
Human HCT-116 colon cancer cells were seeded in 96-well plates (2500 cells/well) 24 hours before being treated for 72 hours with the tested compounds. Cells were grown and treated in DMEM 10% FBS. For each compound, 11 concentrations, corresponding to twofold serial dilutions from the maximum concentration, were evaluated, with each concentration tested in duplicate. DMSO was set at 0.5% final concentration in each well, including in the untreated conditions. At the end of the treatment, cells were fixed 1 hour at 4°C by addition of cold 10 % trichloroacetic acid to a final 3.33 % concentration, then washed 4 times with water. The plates were dried and the cells stained for 30 minutes with 0.057 % (wt/vol) Sulforhodamine B (SRB) in 1% acetic acid, then washed 4 times with 1% acetic acid and dried. The dye was resuspended by a 1 h 30 incubation in 200 µL of 10 mM Tris-base and the absorbance at 490 nm measured with a plate reader (µquant, Bio-tek). For normalization, the background value was subtracted to each value, the duplicates averaged and the untreated condition set to 100% cell viability. CC50 were computed from at least three independent experiments using the GraphPad Prism software using a non-linear regression to a four-parameter logistic curve (log[inhibitor] vs response; variable slope).

[5] = tested on: M. kansasii; test: Antibacterial activity MIC, M. kansasii; conditions: Mycobacterium kansasii
[6] = tested on: E. coli; test: Antibacterial activity MIC, E. coli; conditions: Escherichia coli
[7] = tested on: C. glutamicum; test: Antibacterial activity MIC, C. glutamicum; conditions: Corynebacterium glutamicum
[8] = tested on: M. smegmatis; test: Antibacterial activity MIC, M. smegmatis; conditions: Mycolicibacterium smegmatis
[9] = M. tuberculosis (Table 4), read-out: Antibacterial activity MIC M. tuberculosis
[10] = M. tuberculosis H37Rv, 7H9 broth, 6 days incubation then MTT 24 h, read-out: Anti-Mtb MIC
[11] = read-out: Antibacterial activity MIC M. tuberculosis

| Structure (SMILES) | MIC [1, 10] [µM] | CC50 at 72 h ([3]; African green monkey) [µM] | CC50 at 72 h ([4]; HCT-116 colon cancer cells) [µM] | further results |
| --- | --- | --- | --- | --- |
| CCCCCCCCCCCC(O)C#CCO (racemic) [Compound 1, Pentadec-2-yne-1,4-diol] | 1.25 (≈ 0.3 µg/mL) | 89 | 60 | MIC [1, 9]: 1.25 µM (≈ 0.3 µg/mL); MIC [2]: 2.5 µM (≈ 0.601 µg/mL) |
| CCCCCCCCCCC[C@@H](O)C#CCO [(R)-1, (R)-Pentadec-2-yne-1,4-diol] | 1.25 (≈ 0.3 µg/mL) | – | – | – |
| C=C=C[C@@H](O)C#CCCCCCCCCCCCC [(R)-19] | – | – | – | MIC [5]: 5 µM (≈ 1.31 µg/mL); MIC [6]: > 10 µM; MIC [1, 11]: 2.5 µM (≈ 0.656 µg/mL); MIC [7]: > 10 µM; MIC [8]: 10 µM (≈ 2.62 µg/mL) |
| CCCCCCCCCCC[C@@H](O)C#C[C@H](O)CC [(R,R)-6, (3R,6R)-heptadec-4-yne-3,6-diol] | 2.5 (≈ 0.671 µg/mL) | – | – | – |
| CCCCCCCCCCC[C@H](O)C#C[C@H](O)CC [(R,S)-6, (3R,6S)-heptadec-4-yne-3,6-diol] | 2.5 (≈ 0.671 µg/mL) | – | – | – |
| CCCCCCCCCCC[C@H](O)C#CCO [(S)-1, (S)-Pentadec-2-yne-1,4-diol] | 1.25 (≈ 0.3 µg/mL) | – | – | – |
| C=C=C[C@H](O)C#CCCCCCCCCCCCC [(S)-19] | – | – | – | MIC [5]: 2.5 µM (≈ 0.656 µg/mL); MIC [6]: > 10 µM; MIC [1, 11]: 2.5 µM (≈ 0.656 µg/mL); MIC [7]: > 10 µM; MIC [8]: 10 µM (≈ 2.62 µg/mL) |
| C#C[C@H](O)C#CCCCCCCCCCCCC [(S)-20] | – | – | – | MIC [5]: 1.2 µM (≈ 0.298 µg/mL); MIC [6]: > 10 µM; MIC [1, 11]: 1.2 µM (≈ 0.298 µg/mL); MIC [7]: 10 µM (≈ 2.48 µg/mL); MIC [8]: 2.5 µM (≈ 0.621 µg/mL) |
| CCCCCCCCCCC[C@@H](O)C#C[C@@H](O)CC [(S,R)-6, (3S,6R)-heptadec-4-yne-3,6-diol] | 2.5 (≈ 0.671 µg/mL) | – | – | – |
| CCCCCCCCCCC[C@H](O)C#C[C@@H](O)CC [(S,S)-6, (3S,6S)-heptadec-4-yne-3,6-diol] | 2.5 (≈ 0.671 µg/mL) | – | – | – |
| CCCCCCCCCCCCC#CCO [Comparative example A, reference compound] | 5 (≈ 1.12 µg/mL) | – | – | MIC [1, 9]: 5 µM (≈ 1.12 µg/mL); MIC [2]: 20 µM (≈ 4.49 µg/mL); CC50 at 72 h ([3]; monkey): 187 µM; CC50 at 72 h [4]: 120 µM |
| C=CC(O)C#CC(O)CCCCCCCCCCC (centres unmarked) [Compound 2, Heptadec-1-en-4-yne-3,6-diol] | – | 7.6 | 2 | MIC ([1]; read-out: Anti-Mtb MIC): 1.25 µM (≈ 0.333 µg/mL) |
| C=C=CC(O)C#CC(O)CCCCCCCCCCC (centres unmarked) [Compound 3, Octadeca-1,2-dien-5-yne-4,7-diol] | – | 8 | 9 | MIC ([1]; read-out: Anti-Mtb MIC): 2.5 µM (≈ 0.696 µg/mL) |
| C#CC(O)C#CC(O)CCCCCCCCCCC (centres unmarked) [Compound 4, Heptadeca-1,4-diyne-3,6-diol] | – | 2.5 | 4 | MIC ([1]; read-out: Anti-Mtb MIC): 0.3 µM (≈ 0.0793 µg/mL) |
| CCCCCCCCCCCC(O)C#CC(O)c1ccccc1 (centres unmarked) [Compound 5, 1-Phenylpentadec-2-yne-1,4-diol] | 1.25 (≈ 0.396 µg/mL) | 46.5 | 50 | – |
| CCCCCCCCCCCC(O)C#CC(O)C1CC1 (centres unmarked) [Compound 7, 1-Cyclopropylpentadec-2-yne-1,4-diol] | 0.3 (≈ 0.0841 µg/mL) | 43.9 | 50 | – |
| CCCCCCCCCCCC(O)C#CC(O)C(C)(C)C (centres unmarked) [Compound 8, 2,2-Dimethylheptadec-4-yne-3,6-diol] | 5 (≈ 1.48 µg/mL) | – | 20 | – |
| CCCCCCCCCCCC(O)C#CC(O)C(CC)CC (centres unmarked) [Compound 9, 3-Ethyloctadec-5-yne-4,7-diol] | 5 (≈ 1.55 µg/mL) | – | 20 | – |

| Structure (SMILES) | MIC [1, 10] [µM] | CC50 at 72 h ([3]; African green monkey) [µM] | CC50 at 72 h ([4]; HCT-116 colon cancer cells) [µM] | further results |
| --- | --- | --- | --- | --- |
| CCCCCCCCCCCC(O)C#CC(O)C1CCCC1 (centres unmarked) [Compound 10, 1-Cyclopentylpentadec-2-yne-1,4-diol] | 5 (≈ 1.54 µg/mL) | – | 20 | – |
| CCCCCCCCCCCC(O)C#CC(O)C1CCCCC1 (centres unmarked) [Compound 11, 1-Cyclohexylpentadec-2-yne-1,4-diol] | 5 (≈ 1.61 µg/mL) | – | 50 | – |
| C=CC(O)C#CCC(O)CCCCCCCCCC (centres unmarked) [Compound 12, Heptadec-1-en-4-yne-3,7-diol] | – | 12.5 | 2 | MIC ([1]; read-out: Anti-Mtb MIC): 1.25 µM (≈ 0.333 µg/mL) |
| C=C=CC(O)C#CCC(O)CCCCCCCCCC (centres unmarked) [Compound 13, Octadeca-1,2-dien-5-yne-4,8-diol] | – | – | 12 | MIC ([1]; read-out: Anti-Mtb MIC): 0.6 µM (≈ 0.167 µg/mL) |
| C#CC(O)C#CCC(O)CCCCCCCCCC (centres unmarked) [Compound 14, Heptadeca-1,4-diyne-3,7-diol] | – | 174 | 2 | MIC ([1]; read-out: Anti-Mtb MIC): 0.6 µM (≈ 0.159 µg/mL) |
| CCCCCCCCCCC(O)CC#CC(O)c1ccccc1 (centres unmarked) [Compound 15, 1-Phenylpentadec-2-yne-1,5-diol] | 2.5 (≈ 0.791 µg/mL) | 75 | 41 | – |
| CCCCCCCCCCC(O)CC#CC(O)CC (centres unmarked) [Compound 16, Heptadec-4-yne-3,7-diol] | 5 (≈ 1.34 µg/mL) | 75 | 51 | – |
| CCCCCCCCCCC(O)CC#CC(O)C1CC1 (centres unmarked) [Compound 17, 1-Cyclopropylpentadec-2-yne-1,5-diol] | 0.6 (≈ 0.168 µg/mL) | 44.5 | 40 | – |
| C=CC(O)C#CCCCCCCCCCCCC (centres unmarked) [Compound 18, Heptadec-1-en-4-yn-3-ol] | – | 1 | 0.2 | MIC ([1]; read-out: Anti-Mtb MIC): 2.5 µM (≈ 0.626 µg/mL) |
| C=C=CC(O)C#CCCCCCCCCCCCC (centres unmarked) [Compound 19, Octadeca-1,2-dien-5-yn-4-ol] | 2.5 (≈ 0.656 µg/mL) | – | 2.7 | – |
| C#CC(O)C#CCCCCCCCCCCCC (centres unmarked) [Compound 20, Heptadeca-1,4-diyn-3-ol] | – | 0.8 | 0.1 | MIC ([1]; read-out: Anti-Mtb MIC): 1.2 µM (≈ 0.298 µg/mL) |
| CCCCCCCCCCCCC#CC(O)c1ccccc1 (centres unmarked) [Compound 21, 1-Phenylpentadec-2-yn-1-ol] | 1.2 (≈ 0.361 µg/mL) | 58.7 | 50 | – |
| CCCCCCCCCCCCC#CC(O)C1CC1 (centres unmarked) [Compound 23, 1-Cyclopropylpentadec-2-yn-1-ol] | > 10 | 158 | 60 | – |
| CCCCCCCCCCCCC#CC(O)C(C)(C)C (centres unmarked) [Compound 24, 2,2-Dimethylheptadec-4-yn-3-ol] | > 10 | – | 60 | – |
| CCCCCCCCCCCCC#CC(O)C(CC)CC (centres unmarked) [Compound 25, 3-Ethyloctadec-5-yn-4-ol] | > 10 | – | 125 | – |
| CCCCCCCCCCCCC#CC(O)C1CCCC1 (centres unmarked) [Compound 26, 1-Cyclopentylpentadec-2-yn-1-ol] | > 10 | – | 100 | – |
| CCCCCCCCCCCCC#CC(O)C1CCCCC1 (centres unmarked) [Compound 27, 1-Cyclohexylpentadec-2-yn-1-ol] | 10 (≈ 3.07 µg/mL) | – | 60 | – |
| C=C=CC(O)C#CCCCCCCCCC (centres unmarked) [Compound 28] | – | – | – | MIC [5]: 10 µM (≈ 2.2 µg/mL); MIC [6]: > 10 µM; MIC [1, 11]: 5 µM (≈ 1.1 µg/mL); MIC [7]: > 10 µM; MIC [8]: > 10 µM |
